Assay results as given in ChEMBL document CHEMBL2010651, “Discovery and hit-to-lead optimization of pyrrolopyrimidines as potent, state-dependent Na(v)1.7 antagonists” (Bioorg Med Chem Lett, 2012).
Converted amounts (≈) assume the structure as drawn.

assay: Solubility in simulated intestinal fluid; type: physicochemical; conditions: not given

Q: With `Cc1c(C)n(Cc2ccccc2)c2ncnc(OC3CCN(Cc4cscn4)CC3)c12` as the compound, how does the solubility read?
A: 177 µg/mL (≈ 408 µM)

assay: Lipophilicity, log D of the compound at pH 7.4; type: physicochemical; conditions: buffer

Q: For `Cc1c(C)n(Cc2ccccc2)c2ncnc(OC3CCN(Cc4cscn4)CC3)c12`, which logD is on record?
A: 4.35

Q: For `Cc1cn(Cc2ccccc2)c2ncnc(OC3CCN(Cc4cscn4)CC3)c12`, which logD is on record?
A: 3.89

Q: Which logD does the source give for `Fc1cn(Cc2ccccc2)c2ncnc(OC3CCN(Cc4cscn4)CC3)c12` here?
A: 3.49

Q: Which logD does the source give for `Clc1cn(Cc2ccccc2)c2ncnc(OC3CCN(Cc4cscn4)CC3)c12` here?
A: 4.03

Q: Which logD does the source give for `c1ccc(Cn2ccc3c(OC4CCN(Cc5cscn5)CC4)ncnc32)cc1` here?
A: 3.44

Q: With `Cc1nc(OC2CCN(Cc3cscn3)CC2)c2ccn(Cc3ccccc3)c2n1` as the compound, how does the logD read?
A: 4.15

Q: With `FC(F)(F)c1nc(OC2CCN(Cc3cscn3)CC2)c2ccn(Cc3ccccc3)c2n1` as the compound, how does the logD read?
A: 5.1

Q: For `c1ccc(Cn2ncc3c(OC4CCN(Cc5cscn5)CC4)ncnc32)cc1`, which logD is on record?
A: 2.18

Q: For `c1ccc(Cn2cnc3c(OC4CCN(Cc5cscn5)CC4)ncnc32)cc1`, which logD is on record?
A: 2.28

Q: Which logD does the source give for `CC1(C)CN(Cc2ccccc2)c2ncnc(OC3CCN(Cc4cscn4)CC3)c21` here?
A: 3.94

Q: Which logD does the source give for `CC1(C)C(=O)N(Cc2ccccc2)c2ncnc(OC3CCN(Cc4cscn4)CC3)c21` here?
A: 2.39

Q: With `c1ccc(-n2ccc3c(OC4CCN(Cc5cscn5)CC4)ncnc32)cc1` as the compound, how does the logD read?
A: 3.3

Q: Which logD does the source give for `c1ccc(CCn2ccc3c(OC4CCN(Cc5cscn5)CC4)ncnc32)cc1` here?
A: 3.87

Q: With `c1nc(OC2CCN(Cc3cscn3)CC2)c2ccn(CC3CCCCC3)c2n1` as the compound, how does the logD read?
A: 4.32

Q: Which logD does the source give for `Fc1ccccc1Cn1ccc2c(OC3CCN(Cc4cscn4)CC3)ncnc21` here?
A: 3.49

Q: For `Fc1cccc(Cn2ccc3c(OC4CCN(Cc5cscn5)CC4)ncnc32)c1`, which logD is on record?
A: 3.49

Q: For `Fc1ccc(Cn2ccc3c(OC4CCN(Cc5cscn5)CC4)ncnc32)cc1`, which logD is on record?
A: 3.49

Q: Which logD does the source give for `Clc1cccc(Cn2ccc3c(OC4CCN(Cc5cscn5)CC4)ncnc32)c1` here?
A: 4.03

Q: For `Clc1ccc(Cn2ccc3c(OC4CCN(Cc5cscn5)CC4)ncnc32)cc1`, which logD is on record?
A: 4.03

Q: Which logD does the source give for `Cc1ccccc1Cn1ccc2c(OC3CCN(Cc4cscn4)CC3)ncnc21` here?
A: 3.9

Q: With `Cc1cccc(Cn2ccc3c(OC4CCN(Cc5cscn5)CC4)ncnc32)c1` as the compound, how does the logD read?
A: 3.9

Q: With `Cc1ccc(Cn2ccc3c(OC4CCN(Cc5cscn5)CC4)ncnc32)cc1` as the compound, how does the logD read?
A: 3.9

Q: Which logD does the source give for `FC(F)(F)c1ccccc1Cn1ccc2c(OC3CCN(Cc4cscn4)CC3)ncnc21` here?
A: 4.01

Q: With `FC(F)(F)c1cccc(Cn2ccc3c(OC4CCN(Cc5cscn5)CC4)ncnc32)c1` as the compound, how does the logD read?
A: 4.01

Q: With `FC(F)(F)c1ccc(Cn2ccc3c(OC4CCN(Cc5cscn5)CC4)ncnc32)cc1` as the compound, how does the logD read?
A: 4.01

Q: For `Fc1cccc(Cn2ccc3c(OC4CCN(Cc5cscn5)CC4)ncnc32)c1F`, which logD is on record?
A: 3.45

Q: With `Fc1c(Cl)cccc1Cn1ccc2c(OC3CCN(Cc4cscn4)CC3)ncnc21` as the compound, how does the logD read?
A: 4.19

Q: For `Fc1c(Cn2ccc3c(OC4CCN(Cc5cscn5)CC4)ncnc32)cccc1C(F)(F)F`, which logD is on record?
A: 4.08

Q: With `Fc1cccc(F)c1Cn1ccc2c(OC3CCN(Cc4cscn4)CC3)ncnc21` as the compound, how does the logD read?
A: 3.58

Q: Which logD does the source give for `c1ccc(Cn2ccc3c(OC4CCNCC4)ncnc32)cc1` here?
A: 1.24

Q: With `c1ccc(Cn2ccc3c(OC4CCN(c5ccccc5)CC4)ncnc32)cc1` as the compound, how does the logD read?
A: 5.31

Q: Which logD does the source give for `c1ccc(CN2CCC(Oc3ncnc4c3ccn4Cc3ccccc3)CC2)cc1` here?
A: 4.96

Q: For `O=C(c1cscn1)N1CCC(Oc2ncnc3c2ccn3Cc2ccccc2)CC1`, which logD is on record?
A: 3.07

Q: For `c1ccc(Cn2ccc3c(OC4CCN(Cc5cocn5)CC4)ncnc32)cc1`, which logD is on record?
A: 3.1

Q: Which logD does the source give for `c1ccc(Cn2ccc3c(OC4CCN(Cc5c[nH]cn5)CC4)ncnc32)cc1` here?
A: 2.35

Q: Which logD does the source give for `c1ccc(Cn2ccc3c(OC4CCN(Cc5ccn[nH]5)CC4)ncnc32)cc1` here?
A: 3.02

Q: With `c1ccc(Cn2ccc3c(OC4CCN(Cc5cn[nH]c5)CC4)ncnc32)cc1` as the compound, how does the logD read?
A: 3.16

Q: For `Cn1cc(CN2CCC(Oc3ncnc4c3ccn4Cc3ccccc3)CC2)cn1`, which logD is on record?
A: 3.01

Q: Which logD does the source give for `Cn1ccnc1CN1CCC(Oc2ncnc3c2ccn3Cc2ccccc2)CC1` here?
A: 2.93

Q: With `Cc1nc(CN2CCC(Oc3ncnc4c3ccn4Cc3ccccc3)CC2)cs1` as the compound, how does the logD read?
A: 4.1

Q: Which logD does the source give for `c1ccc(Cn2ccc3c(OC4CCN(Cc5nccs5)CC4)ncnc32)cc1` here?
A: 4.81

Q: For `c1ccc(Cn2ccc3c(OC4CCN(Cc5ccccn5)CC4)ncnc32)cc1`, which logD is on record?
A: 3.7

Q: With `c1ccc(Cn2ccc3c(OC4CCN(Cc5cccnc5)CC4)ncnc32)cc1` as the compound, how does the logD read?
A: 3.67

Q: Which logD does the source give for `c1ccc(Cn2ccc3c(OC4CCN(Cc5ccncc5)CC4)ncnc32)cc1` here?
A: 3.69

Q: For `Cc1cccc(CN2CCC(Oc3ncnc4c3ccn4Cc3ccccc3)CC2)n1`, which logD is on record?
A: 4.08

Q: For `Cc1ccc(CN2CCC(Oc3ncnc4c3ccn4Cc3ccccc3)CC2)nc1`, which logD is on record?
A: 4.15

Q: Which logD does the source give for `Cc1ccnc(CN2CCC(Oc3ncnc4c3ccn4Cc3ccccc3)CC2)c1` here?
A: 4.15

Q: For `Cc1cccnc1CN1CCC(Oc2ncnc3c2ccn3Cc2ccccc2)CC1`, which logD is on record?
A: 4.15

Q: For `Fc1cccc(CN2CCC(Oc3ncnc4c3ccn4Cc3ccccc3)CC2)n1`, which logD is on record?
A: 3.83

Q: For `Fc1ccc(CN2CCC(Oc3ncnc4c3ccn4Cc3ccccc3)CC2)nc1`, which logD is on record?
A: 3.76

Q: Which logD does the source give for `Fc1cccnc1CN1CCC(Oc2ncnc3c2ccn3Cc2ccccc2)CC1` here?
A: 3.77

Q: Which logD does the source give for `c1ccc(Cn2ccc3c(OC4CCN(Cc5cnccn5)CC4)ncnc32)cc1` here?
A: 2.71

Q: For `Fc1ccccc1Cn1ccc2c(OC3CCN(Cc4ccccn4)CC3)ncnc21`, which logD is on record?
A: 3.75

Q: With `Fc1cccc(Cn2ccc3c(OC4CCN(Cc5ccccn5)CC4)ncnc32)c1F` as the compound, how does the logD read?
A: 3.71

Q: With `Fc1c(Cl)cccc1Cn1ccc2c(OC3CCN(Cc4ccccn4)CC3)ncnc21` as the compound, how does the logD read?
A: 4.46

Q: With `Fc1c(Cn2ccc3c(OC4CCN(Cc5ccccn5)CC4)ncnc32)cccc1C(F)(F)F` as the compound, how does the logD read?
A: 4.35

assay: Solubility in phosphate buffered saline; type: physicochemical; conditions: not given

Q: For `Cc1c(C)n(Cc2ccccc2)c2ncnc(OC3CCN(Cc4cscn4)CC3)c12`, which solubility is on record?
A: 65 µg/mL (≈ 150 µM)

assay: Solubility in 0.01 N HCl; type: physicochemical; conditions: not given

Q: For `Cc1c(C)n(Cc2ccccc2)c2ncnc(OC3CCN(Cc4cscn4)CC3)c12`, which solubility is on record?
A: > 200 µg/mL
